Laboratory results as given in patent publication US3994908A, “Substituted acetic acid derivatives and production thereof” (Shionogi & Co., Ltd., priority 1972, dated 1976).

Experiments:
in vivo = conditions: mouse, po
Procedure: Arch. int. […] The toxicity was tested by the ora
administration of the tested compound to mice.

erythema = experiment: Anti-erythema activity by the Wilhelmi method, oral; type: in vivo; conditions: Cavia porcellus, Guinea pig
From the text: The anti-erythema activity was observed by the Wilhelmi method
[Wilhelmi,g.,(1949), Schweiz.Med.Wehnschr.,79, 577]. The anti-edema

**Q.** With CC(=O)Oc1ccccc1C(=O)O [Aspirin, reference compound] as the compound, how does the LD50 (in vivo) read?
**A.** 2000 mg/kg

**Q.** And the ED50 (erythema)?
**A.** 79 mg/kg

**Q.** With CC(C(=O)O)c1ccc(Oc2ccccc2)nc1 (stereo not drawn) [Calcium bis[2-(2-phenoxy-5-pyridyl)-propionate]] as the compound, how does the LD50 (in vivo) read?
**A.** 1640 mg/kg

**Q.** And the ED50 (erythema)?
**A.** 21 mg/kg

**Q.** What does the source list for CC(C(=O)O)c1ccc(Oc2ccc(Cl)cc2)nc1 (stereo not drawn) [2-(2-p-Chlorophenoxy-5-pyridyl)-propionic acid]?
**A.** LD50 (in vivo): 1150 mg/kg; ED50 (erythema): 19 mg/kg

**Q.** Which results are given for CC(C(=O)O)c1ccnc(Oc2ccccc2)c1 (stereo not drawn) [Calcium bis[2-(2-phenoxy-4-pyridyl)-propionate]]?
**A.** LD50 (in vivo): 2250 mg/kg; ED50 (erythema): 47 mg/kg

**Q.** With CCCCC1C(=O)N(c2ccccc2)N(c2ccccc2)C1=O [Phenylbutazone, reference compound] as the compound, how does the ED50 (erythema) read?
**A.** 26 mg/kg
